Experimental data reported in patent publication US10401295B2, “Composition and method for monitoring lipid” (Memorial Sloan-Kettering Cancer Center, priority 2014, dated 2019).

Columns and labels:
HeLa cells [1] = assay: hyperspectral imaging of CNOR emission in live HeLa cells; assay type: cell-based; details: for effect on blue-shifting of CNOR emission: HeLa cells, relative to control
Experimental: Cell Lines and Cell Culture Procedures: HeLa CCL-2 cells (ATCC, Manassas, Va., US) were grown under standard incubation conditions at 37° C. and 5% CO2 in sterile-filtered DMEM with 10% heat-inactivated FBS, 2.5% HEPES, 1% Glutamine, and 1% Penicillin/Streptomycin (all Gibco). For studies performed with homozygous mutant NPC, compound mutant heterozygote NPC, or wild-type fibroblasts, the cell lines GM18453, GM03123 or GM05659 (Coriell, Camden, N.J., US), respectively, were cultured in MEM with 10% FBS, 2.5% HEPES, and 1% Glutamine. Cells were plated on glass-bottom petri dishes, or lysine-covered glass dishes (MatTek) for fibroblasts. Unpurified SWCNT were incubated at 1 mg/L and separated SWCNT were incubated at 0.25 mg/L in media with cells for 30 minutes at 37° C. Depending on the experiment, cells were imaged immediately, or trypsinized (Gibco) and re-plated on a fresh glass-bottom petri dish followed by hyperspectral imaging. Pharmacological treatments on HeLa cells were performed with Nocodazole (Sigma, 10 μg/mL added after SWCNT incubation) or U18666A (Sigma, 3 μg/mL added 6 hours prior to SWCNT incubation). Fibroblast cells were incubated with hydroxypropyl-β-cyclodextrin (Sigma, 100 μM) 6 hours prior to SWCNT incubation. Cells were incubated for 30 minutes with 0.25 mg/L of the SWCNTs before rinsing and replacing with fresh media. Hyperspectral imaging was conducted immediately afterwards and 24 hours later. A DNA-encapsulated nanotube complex, undergoing a continuous solvatochromic shifting response, spatially and temporally tracked endosomal maturation in live HeLa cells. Separated (8,6) nanotubes encapsulated by an ss(GT)6 oligonucleotide, with a median length of 236 nm, were incubated with HeLa cells at 0.25 mg/L for 30 minutes before rinsing and replacing with fresh media. The wavelength distribution of the nanotube complex in endosomes, measured immediately after uptake, was centered at 1200.7±0.4 nm, near the bulk value observed in water. In lysosomes, after 6 hours post-incubation, the wavelength distribution broadened before blue-shifting to 1194.3±0.7 nm at the 24-hour timepoint (FIG. 2, panel A). A small red-shifted nanotube population, with a mean wavelength of 1205 nm, appeared at the 6-hour time point but disappeared by 24 hours. The relative mean wavelength of each emissive region of interest (ROI) was laid over a transmitted light image of the cells, resulting in spatial visualization of the spectral distribution (FIG. 2, panel B). […] The interaction of GT6-(8,6) nanotubes with RAW 264.7 macrophages was characterized, by incubating 2 pM of nanotubes in cell media for 30 minutes at 37° C. Under these conditions, the majority of cells efficiently took up nanotubes via energy-dependent mechanisms.

RAW 264.7 macrophages = assay: CNOR emission in RAW 264.7 macrophages (lysosomal lipid accumulation); assay type: cell-based; details: for blue shift compared with control macrophages: DMEM+10% FBS, U18666A, 10 uM Lalistat
Experimental: A DNA-encapsulated nanotube complex, undergoing a continuous solvatochromic shifting response, spatially and temporally tracked endosomal maturation in live HeLa cells. Separated (8,6) nanotubes encapsulated by an ss(GT)6 oligonucleotide, with a median length of 236 nm, were incubated with HeLa cells at 0.25 mg/L for 30 minutes before rinsing and replacing with fresh media. The wavelength distribution of the nanotube complex in endosomes, measured immediately after uptake, was centered at 1200.7±0.4 nm, near the bulk value observed in water. In lysosomes, after 6 hours post-incubation, the wavelength distribution broadened before blue-shifting to 1194.3±0.7 nm at the 24-hour timepoint (FIG. 2, panel A). A small red-shifted nanotube population, with a mean wavelength of 1205 nm, appeared at the 6-hour time point but disappeared by 24 hours. The relative mean wavelength of each emissive region of interest (ROI) was laid over a transmitted light image of the cells, resulting in spatial visualization of the spectral distribution (FIG. 2, panel B). […] The interaction of GT6-(8,6) nanotubes with RAW 264.7 macrophages was characterized, by incubating 2 pM of nanotubes in cell media for 30 minutes at 37° C. Under these conditions, the majority of cells efficiently took up nanotubes via energy-dependent mechanisms.
RAW macrophages were incubated in lipoprotein depleted serum (LPDS) for 24 hours. Incubation in these conditions reduces the lipid content of the lysosomes and increases the number of surface receptors for acetylated LDL (Ac-LDL) on the cell surface. To induce lipid accumulation in the lysosomes, Ac-LDL and U18666A (a cholesterol transport inhibitor) were introduced to cells incubating in the lipoprotein depleted serum. […]
The reporter detected Wolman's disease, a lysosomal storage disorder characterized by the accumulation of esterified cholesterol in the lysosomes due to a non-functioning lysosomal acid lipase (LAL). […]

HeLa cells [2] = assay: filipin staining of unesterified cholesterol in HeLa cells; assay type: cell-based; details: fixed HeLa cells, versus control
Experimental: Filipin staining was conducted by fixing cells with 1.5% paraformaldehyde in PBS for 20 minutes. Cells were then labeled with 50 μg/mL filipin for 45 minutes. After washing, filipin images were acquired using 350/50 nm excitation and 460/50 mm emission filters with a 400 nm dichroic long-pass filter (Olympus).

[3] = system: NPC fibroblasts (homozygous mutation of the NPC1 gene); assay: CNOR emission in homozygous NPC patient fibroblasts; assay type: cell-based, human
Experimental: (§1) Cell Lines and Cell Culture Procedures: HeLa CCL-2 cells (ATCC, Manassas, Va., US) were grown under standard incubation conditions at 37° C. and 5% CO2 in sterile-filtered DMEM with 10% heat-inactivated FBS, 2.5% HEPES, 1% Glutamine, and 1% Penicillin/Streptomycin (all Gibco). For studies performed with homozygous mutant NPC, compound mutant heterozygote NPC, or wild-type fibroblasts, the cell lines GM18453, GM03123 or GM05659 (Coriell, Camden, N.J., US), respectively, were cultured in MEM with 10% FBS, 2.5% HEPES, and 1% Glutamine. Cells were plated on glass-bottom petri dishes, or lysine-covered glass dishes (MatTek) for fibroblasts. Unpurified SWCNT were incubated at 1 mg/L and separated SWCNT were incubated at 0.25 mg/L in media with cells for 30 minutes at 37° C. Depending on the experiment, cells were imaged immediately, or trypsinized (Gibco) and re-plated on a fresh glass-bottom petri dish followed by hyperspectral imaging.
Pharmacological treatments on HeLa cells were performed with Nocodazole (Sigma, 10 μg/mL added after SWCNT incubation) or U18666A (Sigma, 3 μg/mL added 6 hours prior to SWCNT incubation). […]
Niemann Pick Type-C(NPC) is a lysosomal storage disorder characterized by massive accumulation of unesterified cholesterol in the lysosomes of patient fibroblasts. […]

[4] = system: NPC1 fibroblasts (compound heterozygous mutations of the NPC1 gene); assay: reporter emission in compound heterozygous NPC1 patient fibroblasts; assay type: cell-based, human
Experimental: as §1
In a similar procedure to the experiment with homozygous NPC cells, fibroblasts with the compound heterozygous mutation of the NPC1 gene were plated on a poly-d-lysine-coated glass-bottomed petri-dish and imaged at different time points after an initial 30 minute incubation with the SWCNTs. Histograms of the wavelength distribution profile of the SWCNTs were obtained. […]

Compound: CCN(CC)CCO[C@H]1CC[C@@]2(C)C(=CC[C@@H]3[C@@H]2CC[C@]2(C)C(=O)CC[C@@H]32)C1 [U18666A]
- further increase in blue shift than in untreated control cells (HeLa cells [1]; 3 μg/mL for six hours before incubation with the CNOR, at 24 hours): 3.8±0.7 nm
- effect on blue-shifting of CNOR emission (HeLa cells [1]): enhanced
- blue shift compared with control macrophages (RAW 264.7 macrophages): ~8 nm
- CNOR blue-shift in drug-treated cells relative to drug-free control (RAW 264.7 macrophages; RAW 264.7 macrophages): 11.1±1.1 nm
- intensity of filipin in the cell interior (HeLa cells [2]): increased greatly

Compound: Lalistat
- blue shift compared with control macrophages (RAW 264.7 macrophages): ~8 nm

Compound: hydroxypropyl-β-cyclodextrin [HPβCD]
- effect on CNOR blue-shift in NPC cells ([3]; HPβCD for additional 24 hours, after imaging at 24 hours): reversal of the CNOR blue-shift
- effect of pre-treatment on CNOR fluorescence shifting in diseased cells ([3]; pre-treatment before CNOR incubation): prevented CNOR fluorescence from shifting
- red-shift of nanotube emission ([4]; 100 uM for 24 hours, 24 hours after nanotube addition): approximately 4 nm
- emission in pretreated NPC1 cells versus WT fibroblasts ([4]; pre-treated 24 hours prior to nanotube addition): identical emission values

Compound: COC(=O)Nc1nc2ccc(C(=O)c3cccs3)cc2[nH]1 [nocodazole]
- effect on blue-shifting of CNOR emission (HeLa cells [1]): prevented the blue-shifting
- mean CNOR emission (HeLa cells [1]; nocodazole 10 μg/mL, up to 24 hours after internalization, control 1194.28±0.73): 1200.07±1.4 nm

Compound: Cl.N [NH4Cl]
- effect on CNOR emission populations (HeLa cells [1]; 50 mM added 6 hours after incubation with the CNOR): blue-shifted population remained unaffected while the red-shifted population was depleted
